Laboratory results reported in US20100004316A1, “MULTIFUNCTIONAL CARRIERS FOR THE DELIVERY OF NUCLEIC ACIDS AND METHODS OF USE THEREOF” (UNIVERSITY OF UTAH RESEARCH FOUNDATION, priority 2006, published 2010).

Columns and labels:
U87-Luc cells [1] = experiment: Cytotoxicity of MFC/siRNA complexes (MTT); assay type: cell-based; details: siRNA complexes, 100 nM siRNA
Method: Cytotoxicity of MFC/siRNA complexes. U87-luc cells were incubated with MFC/siRNA complexes of different carriers according to the protocol described above. MTT in PBS (5 mg/mL, 25 μL) was added to each well after incubation and cells were incubated for another 2 hours. After cell culture medium was removed, 200 μL DMSO was added to each well and cells were incubated at 37° C. for 5 min. The optical absorption was measured at 570 nm using a micro-plate reader (Model 550, Bio-Rad Lab. Hercules, Calif.). The relative cell viability was calculated with the equation ([Abs]sample-[Abs]blank)/([Abs]control-[Abs]blank)×100%.

U87-luc xenograft = experiment: In vivo luciferase knockdown with anti-luc siRNA complexes, bioluminescence imaging; design: species or system mice; details: 50 μg anti-luciferase siRNA i.p.
Method: Animal tumor model. U87 cells with stably expression of luciferase were collected and resuspended with medium/matrigel mixture (v/v=l/l). 100 μL of cell suspension containing 2 million cells were injected subcutaneously in the right flanks of the mice.
Carriers. EHCO was selected for the study. DOTAP is a commercial available transfection agent that has been used to deliver siRNA in vivo and was used as a control carrier. siRNAs. Anti-Luciferase siRNA was used to knockdown luciferase expression in mice so as to noninvasively detect gene silencing efficiency by bioluminescence imaging. […] The sequence of antisense is 5′-[…]dTdT-3′ and that of sense is 3′-dTd[…]-5′. siRNA targeting HIF was provided Huntsman Cancer Institute, University of Utah. The sequence of antisense is 5′-[…]dTdT-3′ and that of sense is 3′-dTdT […]-5′.
Administration of Anti-Luc siRNA complexes and Luciferase mouse imaging. Bioluminescence imaging of mice were taken one day before the administration of the anti-luciferase complexes. […] Images were quantified using LivingImage software (Xenogen). […] The luminescence signal intensity on the day before the mice received the anti-luc complexes were set as 100% and the subsequent luciferase expression level in mice after siRNA treatments were normalized to the percentage relative to those at day 0.

[2] = Particle size of MFC/siRNA complexes by dynamic light scattering
Method: Particle Size Analysis. Samples were prepared by mixing 5.0 μg of plasmid DNA or siRNA with appropriate amount of materials in dust-free water and analyzed using a Brookhaven Instruments BI-200SM system equipped with a 5 mW helium neon laser with a wavelength output of 633 nm. The effective diameter and population distribution were computed from the diffusion coefficient using functions supplied by the instrument. Measurements were made at 25° C. at an angle of 90° and each sample was analyzed in triplicate.
Formation and size measurement of MFC/siRNA nanoparticles. MFC/siRNA nanoparticulate complexes were prepared and characterized using the techniques described above. The complexation of the polymerizable MFCs with siRNA and formation of nanoparticles of the complexes were investigated by dynamic light scattering. EHCO was first used to study the complexation with siRNA and the impact of N/P ratios on the complexation and formation of nanoparticles. […] The particle size of siRNA complexes with other polymerizable surfactants was measured at the N/P ratios of 8 and 10 based on the observation with EHCO.

rat red blood cells = experiment: Hemolysis assay at different pHs; assay type: cell-based; details: for hemolytic activity: 8.3 μM; for hemolysis: pH 7.4, 6.5 and 5.4 (all cases)
Method: Hemolysis assay. THCO (16.7 μM), DOTAP (16.7 μM) and Triton X-100 (1%, w/v) were dissolved in phosphate buffered saline (PBS) at a starting pH of 7.4, 6.5, or 5.4 as stock solutions. A rat was sacrificed and blood was obtained by cardiac puncture. Erythrocytes (RBC) were isolated by centrifugation at 1500 g for 10 min at 4° C. The cell pellet was resuspended into a 2% (w/v) RBC solution with prechilled PBS and then seeded (100 μL) into a 96-well plate. 100 μL of testing samples were added to RBC solutions and the plate was incubated for 1 h at 37° C. The absorbance of the supernatant from each sample was measured at 550 nm using a micro-plate reader.
Hemolysis assay. The assays were performed using the techniques described above. The pH sensitive amphiphilic cell membrane disruption of the MFCs was evaluated by hemolysis assay with rat red blood cells at different pHs. […] Generally, all MFCs had lower hemolytic activity at pH 7.4 than at pH 6.5 and 5.4.

U87-Luc cells [3] = experiment: Luciferase gene silencing with anti-luciferase siRNA in U87-Luc cells; assay type: cell-based
Method: THCO-mediated delivery of siRNA targeting a luciferase reporter gene. U87-Luc cells were seeded 24 hours prior to transfection into a 96-well plate at a density of 5000 cells/well. At the time of siRNA transfection, the medium in each well was replaced with fresh serum-free medium. 20 nM anti-luciferase siRNA or non-specific siRNA was complexed with THCO or Transfast™ or DOTAP and incubated for 30 min before use. The transfection by Transfast or DOTAP was performed according to the manufacture's instruction. Complexes were incubated with the cells for 4 hours at 37° C. The medium was then replaced with 100 μL of fresh complete medium and cells were incubated for additional 44 hours. All the transfection tests were performed in triplicate wells. After the incubation, cells were washed with pre-warmed PBS and treated with 200 μL cell lysis buffer and then subjected to a freezing-thawing cycle. Cellular debris was removed by centrifugation at 14,000 g for 5 minutes. The luciferase activity in cell lysate (20 μL) was measured using a luciferase assay kit (100 μL luciferase assay buffer) on a luminometer for 10 seconds (Lumat 9605, EG&G Wallac). The gene silencing efficiency was normalized against the luciferase expression of untreated cells. The siRNA delivery efficiency was also similarly evaluated in 10% FBS medium.
G. In vitro delivery of nucleic acids by MFCs MFC-mediated in vitro gene silencing with siRNA. U87-luc cells with constitutive expression of firefly luciferase were maintained in minimal essential medium (ATCC) containing 10% FBS, G418 (300 μg/mL), streptomycin (100 μg/mL) and penicillin (100 units/mL). U87-Luc cells were seeded 24 hours prior to transfection into a 96-well plate at a density of 5000 cells/well. At the time of siRNA transfection, the medium in each well was replaced with fresh serum-free medium. Anti-luciferase siRNA was complexed with the MFC, TransFast or DOTAP and incubated for 30 min before use. Complexes were incubated with the cells for 4 hours at 37° C. The medium was then replaced with 100 μL of fresh complete medium and cells were incubated for an additional 44 hours. The cells were then washed with pre-warmed PBS, treated with 200 μL cell lysis buffer and subjected to a freezing-thawing cycle. Cellular debris was removed by centrifugation at 14,000 g for 5 minutes. The luciferase activity in cell lysate (20 μL) was measured using a luciferase assay kit (100 μL luciferase assay buffer) on a luminometer for 10 seconds (Lumat 9605, EG&G Wallac). The gene silencing efficiency was normalized against the luciferase expression of untreated cells.

U87 cells = experiment: MTT cytotoxicity assay in U87 cells; assay type: cell-based; details: concentration of 250 μg/mL, 24 h
Method: In another study, U87 cells were seeded in a 96-well plate 24 h before the assay at a density of 10,000 cells/well. The cells were incubated with 200 μL of medium containing THCO at different concentrations and incubate for 24 h. Then 25 μL MTT solution in PBS was added and cells were incubated for another 2 hours. After removing media, 200 μL of DMSO was added to the wells and cells were incubated at 37° C. for 5 min. The optical densities were measured at 570 nm using a micro-plate reader (Model 550, Bio-Rad Lab. Hercules, Calif.). The relative cell viability was calculated as described above. […] The viability of U87 cells incubated with THCO was 79±8% at a concentration of 250 μg/mL as determined the MTT assay, slightly higher than that of DOTAP (72±4%) (FIG. 8).

CCCCCCCCC=CCCCCCCCC(=O)NC(CS)C(=O)NC(Cc1cnc[nH]1)C(=O)NCCNC(=O)CCN(CCN)CCC(=O)NCCNC(=O)C(Cc1cnc[nH]1)NC(=O)C(CS)NC(=O)CCCCCCCC=CCCCCCCCC (centres unmarked) [EHCO, (1-aminoethyl)imino-bis[N-(oleicyl-cysteinyl-histinyl-1-aminoethyl)propion-amide]]
cell viability (U87-Luc cells [1]): 86.7±8.3%
reduction of luciferase expression in the tumor (U87-luc xenograft; after two treatments): more than 50%
particle size of siRNA complexes (diameter) ([2]; N/P ratio of 0.5, incubated 30 minutes): approximately 200 nm
particle size of siRNA complexes ([2]; N/P ratio of 4): about 3 μm
particle size of siRNA complexes ([2]; N/P ratio of 6): approximately 240 nm
particle size of siRNA complexes (diameter) ([2]; N/P ratio of 8, dust free water): approximately 200 nm
particle size of siRNA complexes ([2]; N/P ratio of 10): ~151 nm
hemolytic activity (rat red blood cells; pH 6.5, PBS): negligible hemolysis
hemolytic activity (rat red blood cells; pH 7.4, PBS): negligible hemolysis
luciferase silencing (transfection) efficiency (U87-Luc cells [3]; 20 nM siRNA, MFCs at N/P ratio of 10, FIG. 21b): 74.5±1.0%
knockdown of luciferase expression (U87-Luc cells [3]; 100 nM siRNA, MFCs at N/P ratio of 10, FIG. 21a): 88.4±3.1%

N-(2,3-dioleoyloxy-1-propyl)trimethylammonium methyl sulfate [DOTAP, reference compound]
effect on luciferase expression in the tumor (U87-luc xenograft; two treatments): did not have significant effect after the second treatment
hemolysis (rat red blood cells): Little hemolysis
gene silencing efficiency (U87-Luc cells [3]; 20 nM siRNA, serum free medium, THCO N/P=8, FIG. 12): 47.1±3.8%
gene silencing efficiency (U87-Luc cells [3]; 20 nM siRNA, serum-free medium, THCO at N/P ratios from 4 to 16): 47%
viability of U87 cells (U87 cells): 72±4%

Triton X-100 [reference compound]
hemolysis (rat red blood cells): complete hemolysis
